Measured values reported in ChEMBL document CHEMBL5257028, “Recent advances in the discovery of heparanase inhibitors as anti-cancer agents” (Eur J Med Chem, 2016).
Blank lines part the entries; values can stand above or below the compound they belong to.

Key:
P-selectin = molecular target: T1, P-selectin (Mus musculus, UniProt Q01102); assay: Inhibition of mouse P-selectin assessed as inhibition of adhesion to human LS180 cells to immobilized P-selectin incubated for 1 hrs by ELISA; assay type: cell-based
T1 sequence (Q01102 whole entry): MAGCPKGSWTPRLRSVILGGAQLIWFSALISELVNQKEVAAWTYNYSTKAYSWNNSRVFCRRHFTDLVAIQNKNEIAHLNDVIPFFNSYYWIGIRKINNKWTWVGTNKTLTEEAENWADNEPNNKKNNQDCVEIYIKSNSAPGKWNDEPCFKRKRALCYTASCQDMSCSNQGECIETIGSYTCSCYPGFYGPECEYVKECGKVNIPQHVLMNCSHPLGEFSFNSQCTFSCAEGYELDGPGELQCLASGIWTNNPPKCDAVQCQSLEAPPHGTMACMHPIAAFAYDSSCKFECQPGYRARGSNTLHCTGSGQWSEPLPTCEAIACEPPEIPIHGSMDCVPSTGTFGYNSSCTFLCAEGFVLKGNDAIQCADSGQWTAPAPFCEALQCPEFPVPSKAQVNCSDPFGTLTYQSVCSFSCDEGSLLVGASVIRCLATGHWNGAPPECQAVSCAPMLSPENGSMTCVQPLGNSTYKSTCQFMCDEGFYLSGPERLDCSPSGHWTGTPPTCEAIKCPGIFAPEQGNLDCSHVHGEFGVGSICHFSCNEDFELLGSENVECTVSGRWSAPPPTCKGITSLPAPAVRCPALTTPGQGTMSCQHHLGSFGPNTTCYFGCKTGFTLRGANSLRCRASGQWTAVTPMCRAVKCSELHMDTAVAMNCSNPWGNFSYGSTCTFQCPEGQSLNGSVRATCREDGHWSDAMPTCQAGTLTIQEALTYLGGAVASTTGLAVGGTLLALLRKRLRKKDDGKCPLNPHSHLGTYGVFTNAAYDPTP

B16-F10 = assay: Antimigratory activity against mouse B16-F10 cells assessed as inhibition on cell migration
[1] = Anti-angiogenic activity in human endothelial cells assessed as reduction in cell growth incubated for 11 days by PECAM-1 staining based image analysis; conditions: 264 h
[2] = Half life in mouse; assay type: ADME, organism-based; conditions: in vivo
[3] = molecular target: T2, Heparanase (Homo sapiens) (UniProt Q9Y251); assay: Inhibition of recombinant human heparanase at 5 ug/ml incubated for 4 hrs by beta-scintillation counter analysis relative to control; conditions: dose 5.0 µg/ml
T2 sequence (whole entry): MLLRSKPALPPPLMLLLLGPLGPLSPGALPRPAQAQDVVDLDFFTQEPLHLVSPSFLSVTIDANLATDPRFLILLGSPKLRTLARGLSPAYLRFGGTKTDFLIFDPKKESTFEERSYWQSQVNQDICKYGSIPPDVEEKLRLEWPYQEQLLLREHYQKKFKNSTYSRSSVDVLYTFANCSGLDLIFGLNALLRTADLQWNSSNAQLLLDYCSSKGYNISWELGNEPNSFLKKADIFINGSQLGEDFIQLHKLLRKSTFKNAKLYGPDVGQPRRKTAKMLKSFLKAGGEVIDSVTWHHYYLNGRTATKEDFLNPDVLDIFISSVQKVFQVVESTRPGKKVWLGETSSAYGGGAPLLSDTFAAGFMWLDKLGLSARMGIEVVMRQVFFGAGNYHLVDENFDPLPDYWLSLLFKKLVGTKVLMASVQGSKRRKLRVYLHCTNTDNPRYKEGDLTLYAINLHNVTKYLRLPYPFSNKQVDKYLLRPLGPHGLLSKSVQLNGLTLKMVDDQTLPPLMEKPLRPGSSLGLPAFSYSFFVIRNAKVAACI

HeLa = assay: Cytotoxicity against human HeLa cells assessed as growth inhibition; assay type: functional, cell-based

Structure (SMILES): O=S(=O)(O)OC[C@@H]1O[C@@H](O[C@@H]2[C@@H](OS(=O)(=O)O)[C@H](OS(=O)(=O)O)C(C3O[C@H](COS(=O)(=O)O)[C@@H](O[C@H]4O[C@H](COS(=O)(=O)O)[C@@H](O[C@H]5O[C@H](COS(=O)(=O)O)[C@@H](OS(=O)(=O)O)[C@H](OS(=O)(=O)O)[C@H]5OS(=O)(=O)O)[C@H](OS(=O)(=O)O)[C@H]4OS(=O)(=O)O)[C@H](OS(=O)(=O)O)[C@H]3OS(=O)(=O)O)O[C@H]2COS(=O)(=O)O)[C@@H](OS(=O)(=O)O)[C@H](OS(=O)(=O)O)[C@H]1O[C@@H]1O[C@@H](COS(=O)(=O)O)[C@H](OS(=O)(=O)O)[C@@H](OS(=O)(=O)O)[C@@H]1OS(=O)(=O)O (stereo in doubt; form 1) [listing 1 of 2 here]
IC50 (P-selectin): 58.2 µM

Structure (SMILES): O=C(O)Cc1nc(-c2ccc(-c3ccc(NC(=O)/C=C/c4ccc(Br)cc4)cc3Cl)o2)cs1
IC50 [1]: 1 µM
half-life [2]: 30 min

Structure (SMILES): COc1ccc(N2C(=O)c3ccc(C(=O)O)cc3C2=O)cc1-c1nc2cc(-c3ccc4c(c3)OCO4)ccc2o1
IC50 [1]: 3 µM

Structure (SMILES): O=C(O)c1ccc2c(c1)C(=O)N(c1cccc(-c3nc4ccccc4o3)c1)C2=O
IC50 [1]: 40 µM

Structure (SMILES): O=C(O)Cc1ccc2oc(-c3ccc(/C=C/C(=O)Nc4ccc(Cl)cc4Cl)cc3F)nc2c1
IC50 [1]: 2 µM

Structure (SMILES): COc1ccc(C2CNC(c3ccccc3F)OC23CCCCC3)cc1 (configuration not stated)
IC50 (HeLa): 48.2 µM

Structure (SMILES): CCCNc1ccc(N2C(=O)c3ccc(C(=O)O)cc3C2=O)cc1-c1nc2cc(-c3ccc(Br)cc3)ccc2o1
IC50 [1]: 0.25 µM

More lines, now with the values ahead:

IC50 (B16-F10): 30 µM
Structure (SMILES): CCCCCCCCCCCCCCCc1c(O[C@H]2O[C@H](C(=O)OC)[C@@H](O)[C@H](O)[C@H]2O)ccc(O)c1C(=O)Oc1cc(C)c(C(=O)O)c(O)c1

inhibition [3]: 58%
Structure (SMILES): O=S(=O)(O)OC[C@@H]1O[C@@H](O[C@@H]2[C@@H](OS(=O)(=O)O)[C@H](OS(=O)(=O)O)C(C3O[C@H](COS(=O)(=O)O)[C@@H](O[C@H]4O[C@H](COS(=O)(=O)O)[C@@H](O[C@H]5O[C@H](COS(=O)(=O)O)[C@@H](OS(=O)(=O)O)[C@H](OS(=O)(=O)O)[C@H]5OS(=O)(=O)O)[C@H](OS(=O)(=O)O)[C@H]4OS(=O)(=O)O)[C@H](OS(=O)(=O)O)[C@H]3OS(=O)(=O)O)O[C@H]2COS(=O)(=O)O)[C@@H](OS(=O)(=O)O)[C@H](OS(=O)(=O)O)[C@H]1O[C@@H]1O[C@@H](COS(=O)(=O)O)[C@H](OS(=O)(=O)O)[C@@H](OS(=O)(=O)O)[C@@H]1OS(=O)(=O)O (stereo in doubt; form 2)

inhibition [3]: 85%
Structure (SMILES): O=S(=O)(O)OC[C@@H]1O[C@@H](O[C@@H]2[C@@H](OS(=O)(=O)O)[C@H](OS(=O)(=O)O)C(C3O[C@H](COS(=O)(=O)O)[C@@H](O[C@H]4O[C@H](COS(=O)(=O)O)[C@@H](O[C@H]5O[C@H](COS(=O)(=O)O)[C@@H](OS(=O)(=O)O)[C@H](OS(=O)(=O)O)[C@H]5OS(=O)(=O)O)[C@H](OS(=O)(=O)O)[C@H]4OS(=O)(=O)O)[C@H](OS(=O)(=O)O)[C@H]3OS(=O)(=O)O)O[C@H]2COS(=O)(=O)O)[C@@H](OS(=O)(=O)O)[C@H](OS(=O)(=O)O)[C@H]1O[C@@H]1O[C@@H](COS(=O)(=O)O)[C@H](OS(=O)(=O)O)[C@@H](OS(=O)(=O)O)[C@@H]1OS(=O)(=O)O (stereo in doubt; form 1) [listing 2 of 2 here]

IC50 (B16-F10): 15 µM
Structure (SMILES): CCCCCCCCCCCCCCCc1c(O[C@H]2O[C@H](C(=O)O)[C@@H](O)[C@H](O)[C@H]2O)ccc(O)c1C(=O)Oc1cc(C)c(C(=O)O)c(O)c1
